The subject of data set [1] is HCT-116. Kind of data set: cells. The settings on record: Homo sapiens, HCT-116, 48 h.
Description: Antiproliferative activity against human HCT-116 cells assessed as reduction in cell viability measured for 48 hrs by MTT assay
Data set [2] deals with Jurkat. Nature of the data set: Antiproliferative activity against human Jurkat T cells assessed as reduction in cell viability measured for 48 hrs by CCK-8 assay. Format: functional, cell-based.
Data set [3] has as its system Raji. Nature of the data set: Antiproliferative activity against human Raji cells assessed as reduction in cell viability measured for 48 hrs by MTT assay. Format: functional, cell-based.
In data set [4] the test system is MCF7. Kind of data set: cells. The settings on record: Homo sapiens, MCF7, 48 h.
Description: Antiproliferative activity against human MCF7 cells assessed as reduction in cell viability measured for 48 hrs by MTT assay
For data set [5], the system named is B16-F10. Nature of the data set: Induction of apoptosis in mouse B16-F10 cells at 8 uM measured for 48 hrs by Annexin-V/FITC staining based flow cytometry analysis relative to control. Format: functional.
Data set [6] has as its system B16-F10. Kind of data set: Cytotoxicity against mouse B16-F10 cells assessed as increase in dead cells at 0.5 to 8 uM measured for 48 hrs by calcein-AM/propidium iodide staining based analysis. In kind it is functional, cell-based. The settings on record: dose 0.5-8 µM.
Data set [7] addresses T1, Protein deacetylase HDAC6 (Homo sapiens, UniProt Q9UBN7).
T1 sequence (Q9UBN7 whole entry): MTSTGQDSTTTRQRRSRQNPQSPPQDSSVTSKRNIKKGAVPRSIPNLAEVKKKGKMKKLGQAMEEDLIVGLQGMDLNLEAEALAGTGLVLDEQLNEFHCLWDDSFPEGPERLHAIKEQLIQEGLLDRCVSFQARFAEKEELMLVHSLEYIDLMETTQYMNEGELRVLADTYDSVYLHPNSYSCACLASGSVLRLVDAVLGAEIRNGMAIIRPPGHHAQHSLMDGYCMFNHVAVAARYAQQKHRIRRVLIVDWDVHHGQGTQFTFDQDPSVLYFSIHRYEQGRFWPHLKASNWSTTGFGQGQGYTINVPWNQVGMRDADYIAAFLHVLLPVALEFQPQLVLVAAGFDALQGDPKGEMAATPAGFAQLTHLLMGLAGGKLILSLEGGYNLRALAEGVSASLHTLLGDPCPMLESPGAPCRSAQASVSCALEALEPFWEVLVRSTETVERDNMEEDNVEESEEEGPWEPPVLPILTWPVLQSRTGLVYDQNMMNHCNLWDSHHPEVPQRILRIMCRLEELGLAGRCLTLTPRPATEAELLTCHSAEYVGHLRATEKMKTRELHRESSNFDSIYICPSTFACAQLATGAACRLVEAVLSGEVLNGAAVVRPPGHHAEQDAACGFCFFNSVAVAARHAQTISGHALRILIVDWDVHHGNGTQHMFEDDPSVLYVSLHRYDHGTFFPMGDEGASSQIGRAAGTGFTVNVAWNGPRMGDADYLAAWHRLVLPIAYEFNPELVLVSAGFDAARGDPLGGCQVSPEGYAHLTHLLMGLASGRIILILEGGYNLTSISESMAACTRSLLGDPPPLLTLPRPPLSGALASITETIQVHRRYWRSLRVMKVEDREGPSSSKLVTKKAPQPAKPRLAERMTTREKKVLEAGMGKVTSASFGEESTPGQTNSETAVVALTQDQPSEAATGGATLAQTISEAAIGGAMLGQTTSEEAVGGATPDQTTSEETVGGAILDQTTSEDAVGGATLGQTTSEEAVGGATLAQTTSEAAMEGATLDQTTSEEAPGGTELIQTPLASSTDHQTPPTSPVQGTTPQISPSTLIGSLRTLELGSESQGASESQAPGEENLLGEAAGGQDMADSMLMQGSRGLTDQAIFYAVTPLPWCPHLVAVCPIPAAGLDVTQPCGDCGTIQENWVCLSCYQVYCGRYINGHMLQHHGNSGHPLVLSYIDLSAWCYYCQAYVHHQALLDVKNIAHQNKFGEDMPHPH
Kind of data set: Inhibition of human recombinant HDAC6 using Ac-Leu-Gly-Lys (Ac)-AMC as substrate preincubated with compound for 10 mins followed by substrate addition and measured after 45 mins by TECAN microtiter plate reader analysis.

Data set [8] deals with B16-F10. Nature of the data set: Antiproliferative activity against mouse B16-F10 cells assessed as reduction in cell viability measured for 48 hrs by MTT assay. In kind it is functional, cell-based. The settings on record: B16-F10, 48 h.
For data set [9], the target named is T2, Histone deacetylase 8 (Mus musculus) (UniProt Q8VH37).
T2 sequence (whole entry): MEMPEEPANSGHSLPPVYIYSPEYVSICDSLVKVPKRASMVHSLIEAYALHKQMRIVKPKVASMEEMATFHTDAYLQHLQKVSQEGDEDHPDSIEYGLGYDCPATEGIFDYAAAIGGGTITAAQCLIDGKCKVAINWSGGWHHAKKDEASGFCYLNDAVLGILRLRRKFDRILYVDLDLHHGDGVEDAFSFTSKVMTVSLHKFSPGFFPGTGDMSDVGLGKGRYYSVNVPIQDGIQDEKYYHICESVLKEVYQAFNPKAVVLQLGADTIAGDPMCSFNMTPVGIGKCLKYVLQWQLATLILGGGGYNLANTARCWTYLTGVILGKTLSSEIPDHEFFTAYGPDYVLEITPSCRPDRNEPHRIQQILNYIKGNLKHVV
Kind of data set: Inhibition of HDAC8 in mouse B16-F10 cells assessed as effect on acetylated SMC3 level at 1 to 2 uM measured for 24 hrs by Western blot analysis. In kind it is cell-based. As to conditions: dose 1-2 µM.

The nature of data set [10]: Aqueous solubility of compound measured for 24 hrs by shake flask based HPLC analysis. As to conditions: buffer. In kind it is physicochemical.
Data set [11] deals with B16-F10. Nature of the data set: Induction of cell cycle arrest in mouse B16-F10 cells assessed as accumulation of cells at G0/G1 phase measured for 48 hrs by flow cytometry analysis. Format: functional, cell-based. The settings on record: dose 0.5-4 µM.
Data set [12] deals with B16-F10. Nature of the data set: Induction of cell cycle arrest in mouse B16-F10 cells assessed as accumulation of cells at G2/M phase measured for 48 hrs by flow cytometry analysis. The settings on record: dose 0.5-4 µM. Format: functional, cell-based.
Data set [13] deals with Daudi. Nature of the data set: Antiproliferative activity against human Daudi cells assessed as reduction in cell viability measured for 48 hrs by MTT assay. Format: functional, cell-based.
Data set [14] has as its system HepG2. Nature of the data set: Antiproliferative activity against human HepG2 cells assessed as reduction in cell viability measured for 48 hrs by MTT assay. Format: functional, cell-based. The settings on record: HepG2, 48 h.
For data set [15], the system named is B16-F10. Nature of the data set: Induction of apoptosis in mouse B16-F10 cells at 2 uM measured for 48 hrs by Annexin-V/FITC staining based flow cytometry analysis relative to control. Format: functional.
Data set [16] relates to B16-F10. Nature of the data set: Induction of apoptosis in mouse B16-F10 cells at 0.5 uM measured for 48 hrs by Annexin-V/FITC staining based flow cytometry analysis relative to control. Format: functional.
The subject of data set [17] is B16-F10. Nature of the data set: Induction of apoptosis in mouse B16-F10 cells at 1 uM measured for 48 hrs by Annexin-V/FITC staining based flow cytometry analysis relative to control. In kind it is functional.

Values after ≈ are worked out from the molar mass of the structure shown. Active and inactive are the calls of the source. The rule behind the calls is not given here.

The values that follow come from ChEMBL document CHEMBL5523759, “Discovery of Novel HDAC3 Inhibitors with PD-L1 Downregulating/Degrading and Antitumor Immune Effects” (J Med Chem, 2024).

Turning to `CCCNNC(=O)c1ccc(CNC(=O)c2ncc(CNc3ccccc3)s2)cc1`, the IC50 in [1] is 430 nM; in data set [2], 90 nM; in [4], 2940 nM; in data set [7], over 10000 nM; in [8], 1200 nM; in data set [14] it was 240 nM. For the same compound, the outcome in [3], in data set [6] and in [13] was Active. The Activity in [5] was 71.07%; in data set [11] it was “Dose-Dependent Effect”; in data set [12] it was “Dose-Dependent Effect”; in data set [15] it was 61.84%; in data set [16] it was 21.23%; in data set [17] it was 31.49%. The inhibition entry in data set [9] was “inactive”. The same compound registered a thermodynamic solubility at 24 h in [10] of 15.6 µg/mL (≈ 36.8 µM).
Regarding `Nc1ccccc1NC(=O)c1ccc(-c2ncc(CNc3ccccc3)s2)cc1`, the IC50 in data set [1] was 1570 nM; in data set [2], 140 nM; in data set [4] it was 3340 nM; in data set [7], over 10000 nM; in data set [8] it was 1340 nM; in [14] it was 960 nM. Further, the result in data set [3], in data set [6] and in [13] was Active. Also, the Activity in data set [5] is 29.59%; in [11], “Dose-Dependent Effect”; in [12], “Dose-Dependent Effect”; in data set [15], 18.77%; in [16], 11%; in data set [17] it was 13.2%. The inhibition result in data set [9] is “inactive”. The compound also came in with a solubility (thermodynamic) at 24 h in data set [10] of 3.8 µg/mL (≈ 9.49 µM).
